# B1: GR-K426A: mutant murine glucocorticoid receptor, point mutation at lysine-426, resistant to proteasomal degradation, transfected into cEND cells (SEQ ID NOs: 3 and 4) (protein)
# chain: MDSKESLAPPGRDEVPSSLLGRGRGSVMDLYKTLRGGATVKVSASSPSVAAASQADSKQQRILLDFSKGSASNAQQQQQQQQPQPDLSKAVSLSMGLYMGETETKVMGNDLGYPQQGQLGLSSGETDFRLLEESIANLNRSTSRPENPKSSTPAAGCATPTEKEFPQTHSDPSSEQQNRKSQPGTNGGSVKLYTTDQSTFDILQDLEFSAGSPGKETNESPWRSDLLIDENLLSPLAGEDDPFLLEGDVNEDCKPLILPDTKPKIQDTGDTILSSPSSVALPQVKTEKDDFIELCTPGVIKQEKLGPVYCQASFSGTNIIGNKMSAISVHGVSTSGGQMYHYDMNTASLSQQQDQKPVFNVIPPIPVGSENWNRCQGSGEDNLTSLGAMNFAGRSVFSNGYSSPGMRPDVSSPPSSSSTATGPPPALCLVCSDEASVCHYGVLTCGSCKVFFKRAVEGQHNYLCAGRNDCIIDKIRRKNCPACRYRKCLQAGMNLEARKTKKKIKGIQQATAGVSQDTSENANKTIVPAALPQLTPTLVSLLEVIEPEVLYAGYDSSVPDSAWRIMTTLNMLGGRQVIAAVKWAKAIPGFRNLHLDDQMTLLQYSWMFLMAFALGWRSYRQASGNLLCFAPDLIINEQRMTLPCMYDQCKHMLFISTELQRLQVSYEEYLCMKTLLLLSSVPKEGLKSQELFDEIRMTYIKELGKAIVKREGNSSQNWQRFYQLTKLLDSMHDVVENLLSYCFQTFLDKSMSIEFPEMLAEIITNQIPKYSNGNIKKLLFHQK
# modifications: expressed in transfected cEND cells; mus musculus
# How the values were obtained:
# [1] = tested on: focal cerebral ischemia (tMCAO); details: mice, 24 h after 60 min tMCAO; same doses; untreated control 48.3±16.7 or 56.6±10.0
# Protocol: The intraluminal suture was left in situ for 60 minutes. Then animals were re-anesthetized and the occluding monofilament was withdrawn to allow reperfusion. […] Control mice (n=10) received 0.9% NaCl solution.
# Control mice (n=10) received 0.9% NaCl solution.
# [2] = tested on: traumatic brain injury (CCI); assay: Controlled cortical impact (CCI) traumatic brain injury model; assay type: in vivo, mouse; details: mice, 24 h after CCI; given 30 min after CCI; bortezomib 0.2 mg/kg, dexamethasone 10 mg/kg; scale 0 to 10
# Protocol: As is known in the art, the neurological severity score is a measure of neurological impairment and is quantified on a scale from 0 (no impairment) to 10 (maximum impairment). When determining the neurological severity score, primarily the motoric activity is assessed (walking on a bar, false steps, search or foraging, respectively, behaviour and the like).
# occludin protein = assay: Western blot and densitometry, occludin protein in cEND cells; assay type: cell-based, mouse; details: for occludin protein, of control: GR-K426A-transfected cEND cells, after O2/glucose deprivation
# Protocol: (C)-(D) The influence of O2/glucose-deprivation on the tight junction proteins occludin and claudin-5 could be shown by Western Blot: for this, cells were seeded on plastic cell culture flasks coated with collagen IV, treated as indicated and subjected to SDS-gel electrophoresis and Western blotting. A four-hour exposure to O2/glucose-deprivation caused a significant (P<0.05) decrease in occludin protein to 82±3% as compared to the untreated control. […]. Comparably, O2/glucose-deprivation caused a significant (P<0.001) decrease in claudin-5 protein to 61±4% as compared to the untreated control. […]. (C) Effects of proteasomal inhibition on occludin protein levels were examined by western blot analysis and densitometric analysis.
# claudin-5 protein = assay: Western blot and densitometry, claudin-5 protein in cEND cells; assay type: cell-based, mouse; details: GR-K426A-transfected cEND cells, O2/glucose deprivation, presence of dexamethasone (K426A O2/glu depr+dex)
# Protocol: (C)-(D) The influence of O2/glucose-deprivation on the tight junction proteins occludin and claudin-5 could be shown by Western Blot: for this, cells were seeded on plastic cell culture flasks coated with collagen IV, treated as indicated and subjected to SDS-gel electrophoresis and Western blotting. A four-hour exposure to O2/glucose-deprivation caused a significant (P<0.05) decrease in occludin protein to 82±3% as compared to the untreated control. […]. Comparably, O2/glucose-deprivation caused a significant (P<0.001) decrease in claudin-5 protein to 61±4% as compared to the untreated control. […].
# GR protein = assay: Western blot and densitometry, GR protein levels in cEND cells; assay type: cell-based, mouse; details: normoxia, 100 nM dexamethasone 24 h (normox+dex)
# Protocol: (A) GR protein levels after O2/glucose-deprivation.
# (§1) Electrophoresis and immunoblotting, quantitative real-time RT-PCR, transendothelial electrical resistance measurements, transfection and luciferase assay were performed following standard procedures.
# cEND monolayers = assay: Transendothelial electrical resistance (TER) of cEND monolayers, normoxia or O2/glucose deprivation; assay type: cell-based, mouse; details: GR-K426A-transfected cEND cells, after O2/glucose deprivation, without dexamethasone (K426A O2/glu depr)
# Protocol: Growth medium (10% FCS) was changed after 5 days in culture to differentiation medium ([…], ±additions) and analysis of the TER was performed after O2/glucose-deprivation as indicated. […] Hek293 cells were maintained in DMEM, 10% FCS. […] We performed cell viability assays following standard procedures.
# as §1
# claudin-5 = assay: Real time RT-PCR, claudin-5 gene expression in cEND cells; assay type: cell-based, mouse; details: introduction of GR-K426A
# Protocol: (§2) Normox control (black bars), normox+dex (white bars), O2/glu depr (light grey bars), O2/glu depr+dex (dark grey bars).
# as §1
# (§3) At first, expression levels of genes encoding the tight junction proteins occludin, claudins-3, -5, -12 and the adherens junction protein, VE-cadherin, were assessed by real time RT-PCR (FIG. 2B).
# VE-cadherin = assay: Real time RT-PCR, VE-cadherin gene expression in cEND cells; assay type: cell-based, mouse; details: introduction of GR-K426A
# Protocol: as §2, §1, §3
molecule,measurement,setting,value
"CC(C)C[C@@H](NC(=O)[C@@H](Cc1ccccc1)NC(=O)c1cnccn1)B(O)O [bortezomib, [(1S)-3-methyl-1-[[(2R)-3-phenyl-2-(pyrazine-2-carbonylamino)propanoyl]amino]butyl]boronic acid]",volume of Evan's blue extravasation (edema volume),[1],no influence
same,neurological severity score,[2],does not lead to any statistically significant improvement
C[C@@H]1C[C@H]2[C@@H]3CCC4=CC(=O)C=C[C@]4(C)[C@@]3(F)[C@@H](O)C[C@]2(C)[C@@]1(O)C(=O)CO [dexamethasone],"occludin protein, of control",occludin protein; dexamethasone (K426A O2/glu depr+dex),122±5%
same,"occludin protein content, of control","occludin protein; normoxia, dexamethasone",120±7%
same,claudin-5 protein level,claudin-5 protein,44±11%
same,"GR protein, of untreated cells",GR protein,66±2%
B1,TER,cEND monolayers,239+58 Ωcm^2
same,claudin-5 gene expression level,claudin-5,not influenced
same,VE-cadherin gene expression level,VE-cadherin,not influenced
same,"occludin protein, of control",occludin protein; without dexamethasone (K426A O2/glu depr),58±7%
